US6737383B1, “Herbicidal oxadiazolidines” (priority 1999, dated 2004)

How the values were obtained:
crabgrass = experiment: Test B pre/postemergence crabgrass; format: in vivo, Digitaria sanguinalis
Outline: (§1)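 Test chemicals in a non-phytotoxic solvent mixture with surfactant were sprayed preemergence onto planted seeds and postemergence onto plants 2 to 18 cm tall (1- to 4-leaf stage). After twelve to sixteen days in a greenhouse, injury was visually rated against untreated controls from 0 (no effect) to 10 (complete control).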

sugar beet = experiment: Test B pre/postemergence sugar beet; format: in vivo, Beta vulgaris
Outline: as §1

corn = experiment: Test B pre/postemergence corn; format: in vivo, Zea mays
Outline: as §1

rice = experiment: Test B flood test rice; format: in vivo, Oryza sativa; settings: for Rice plant response rating (0 to 10 scale, 0 is no effect, 10 is complete control): under heading Pre-emergence; for Rice plant response rating (0 to 10 scale, 0 is no effect, 10 is complete control) / Plant response rating, Rice (0 to 10 scale, 0 is no effect, 10 is complete control): visual evaluation after twelve to sixteen days
Outline: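 Each value is a visual injury score relative to controls, with 10 meaning complete control and 0 no effect. Evaluation took place twelve to sixteen days after the 2-leaf-stage plants were treated and kept in the greenhouse.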

[1] = Postemergence, Rate 62 g/ha, scale 0 to 10, 0 is no effect, 10 is complete control
[2] = Postemergence, Rate 250 g/ha, scale 0 to 10, 0 no effect, 10 complete control
[3] = Preemergence, Rate 62 g/ha, scale 0 to 10 (0 no effect, 10 complete control)
[4] = Preemergence, Rate 125 g/ha, scale 0 to 10 (0 no effect, 10 complete control)
[5] = Preemergence, Rate 250 g/ha, scale of 0 to 10 where 0 is no effect and 10 is complete control
[6] = Preemergence, Rate 500 g/ha, scale 0 (no effect) to 10 (complete control)
[7] = Rate 125 g/ha, Postemergence, scale 0 to 10, 0 no effect, 10 complete control
[8] = Rate 500 g/ha, Postemergence, scale 0 to 10, 0 no effect, 10 complete control
[9] = Rate 62 g/ha, headed Pre-emergence (flood test species), scale 0 to 10 (0 no effect, 10 complete control)
[10] = Rate 125 g/ha, Pre-emergence, flood test species, scale 0 to 10 where 0 is no effect and 10 is complete control
[11] = Postemergence, Rate 125 g/ha, scale 0 to 10, 0 is no effect, 10 is complete control
[12] = Postemergence, Rate 250 g/ha, scale 0 to 10, 0 is no effect, 10 is complete control
[13] = Postemergence, Rate 500 g/ha, scale of 0 to 10 where 0 is no effect and 10 is complete control
[14] = Preemergence, Rate 125 g/ha, scale of 0 to 10 where 0 is no effect and 10 is complete control
[15] = Preemergence, Rate 250 g/ha, scale 0 to 10, 0 is no effect, 10 is complete control
[16] = Preemergence, Rate 500 g/ha, scale 0 to 10, 0 is no effect, 10 is complete control
[17] = Rate 62 g/ha, Postemergence, scale of 0 to 10 where 0 is no effect and 10 is complete control
[18] = Postemergence, Rate 125 g/ha, scale of 0 to 10 where 0 is no effect and 10 is complete control
[19] = Postemergence, Rate 1000 g/ha, scale 0 to 10 (0 no effect, 10 complete control)
[20] = Preemergence, Rate 500 g/ha, scale of 0 to 10 where 0 is no effect and 10 is complete control
[21] = Rate 1000 g/ha, Preemergence, scale 0 to 10 (0 no effect, 10 complete control)
[22] = Postemergence, Rate 250 g/ha, scale of 0 to 10, 0 is no effect, 10 is complete control
[23] = Rate 125 g/ha, flood test species
[24] = Rate 250 g/ha, Pre-emergence (flood test species), scale 0 to 10, 0 is no effect, 10 is complete control
[25] = Rate 500 g/ha, Pre-emergence section of Table B, 0 to 10 scale (0 no effect, 10 complete control)
[26] = Rate 62 g/ha, flood test species, Pre-emergence
[27] = Rate 250 g/ha, Pre-emergence, flood-test species, scale 0 to 10, 0 is no effect, 10 is complete control
[28] = Rate 500 g/ha, Pre-emergence, flood test species, scale 0 to 10 (0 no effect, 10 complete control)
[29] = Preemergence, Rate 62 g/ha, scale of 0 to 10 where 0 is no effect and 10 is complete control
[30] = Preemergence, Rate 250 g/ha, scale 0 to 10 (0 no effect, 10 complete control)
[31] = Rate 125 g/ha, Postemergence, scale 0 to 10
[32] = Rate 125 g/ha, Preemergence, scale of 0 to 10 where 0 is no effect and 10 is complete control

Cc1ccccc1-n1c(=O)on(C(=O)N(Cc2ccccc2)C(C)C)c1=O [Compound 72]
0: Crabgrass plant response rating (crabgrass; [1]) | Crabgrass plant response rating (crabgrass; [2]) | Crabgrass plant response rating (crabgrass; [3]) | Plant response rating, Crabgrass (crabgrass; [4]) | Plant response rating, Crabgrass (crabgrass; [5]) | Crabgrass plant response rating (crabgrass; [7]) | Crabgrass plant response rating (crabgrass; [8]) | Sugarbeets plant response rating (sugar beet; [1]) | Sugarbeets plant response rating (sugar beet; [2]) | Sugarbeets plant response rating (sugar beet; [3]) | Plant response rating, Sugarbeets (sugar beet; [4]) | Plant response rating, Sugarbeets (sugar beet; [5]) | Sugarbeets plant response rating (sugar beet; [6]) | Sugarbeets plant response rating (sugar beet; [7]) | Sugarbeets plant response rating (sugar beet; [8]) | Corn plant response rating (corn; [1]) | Corn plant response rating (corn; [2]) | Corn plant response rating (corn; [3]) | Plant response rating, Corn (corn; [4]) | Plant response rating, Corn (corn; [5]) | Corn plant response rating (corn; [6]) | Corn plant response rating (corn; [7]) | Corn plant response rating (corn; [8]) | Rice plant response rating (rice; [9]) | Rice plant response rating (rice; [10]) | Rice plant response rating (rice; Rate 250 g/ha, headed Pre-emergence (flood test species), scale 0 to 10 (0 no effect, 10 complete control)) | Plant response rating, Rice (rice; Rate 500 g/ha, headed Pre-emergence (flood test species), scale 0 to 10 (0 no effect, 10 complete control))
4: Crabgrass plant response rating (crabgrass; [6])

CC(C)N(C(=O)n1oc(=O)n(CCC(F)(F)F)c1=O)c1ccc(F)cc1 [Compound 397]
3: Corn plant response rating (corn; [15])
8: Corn plant response rating (corn; [16])
0: Plant response rating, Sugarbeets (sugar beet; [12]) | Sugarbeets plant response rating (sugar beet; [13]) | Plant response rating, Sugarbeets (sugar beet; [3]) | Sugarbeets plant response rating (sugar beet; [17]) | Plant response rating, Corn (corn; [11]) | Plant response rating, Corn (corn; [12]) | Corn plant response rating (corn; [13]) | Plant response rating, Corn (corn; [3]) | Plant response rating, Corn (corn; [14]) | Corn plant response rating (corn; [17]) | Rice plant response rating (rice; Postemergence section (flood test species), Rate 500 g/ha, scale of 0 to 10 where 0 is no effect and 10 is complete control) | Rice plant response rating (rice; Rate 62 g/ha, Postemergence (flood test species), scale of 0 to 10 where 0 is no effect and 10 is complete control) | Plant response rating, Rice (rice; flood test species, listed under Postemergence, Rate 250 g/ha, scale 0 to 10, 0 is no effect, 10 is complete control)
4: Plant response rating, Sugarbeets (sugar beet; [14])
10: Plant response rating, Crabgrass (crabgrass; [3]) | Plant response rating, Crabgrass (crabgrass; [14]) | Crabgrass plant response rating (crabgrass; [15]) | Crabgrass plant response rating (crabgrass; [16])
9: Plant response rating, Crabgrass (crabgrass; [12]) | Crabgrass plant response rating (crabgrass; [13]) | Sugarbeets plant response rating (sugar beet; [16])
2: Crabgrass plant response rating (crabgrass; [17])
7: Sugarbeets plant response rating (sugar beet; [15])
6: Plant response rating, Crabgrass (crabgrass; [11])

C=CCn1c(=O)on(C(=O)N(c2c(C)cccc2C)C(C)COC)c1=O (stereo not shown) [Compound 600]
1: Plant response rating, Crabgrass (crabgrass; [18])
0: Crabgrass plant response rating (crabgrass; [14]) | Plant response rating, Crabgrass (crabgrass; [20]) | Plant response rating, Crabgrass (crabgrass; [21]) | Plant response rating, Sugarbeets (sugar beet; [18]) | Sugarbeets plant response rating (sugar beet; [22]) | Plant response rating, Sugarbeets (sugar beet; [13]) | Sugarbeets plant response rating (sugar beet; [19]) | Sugarbeets plant response rating (sugar beet; [14]) | Plant response rating, Sugarbeets (sugar beet; [20]) | Plant response rating, Sugarbeets (sugar beet; [21]) | Plant response rating, Corn (corn; [18]) | Corn plant response rating (corn; [22]) | Plant response rating, Corn (corn; [13]) | Corn plant response rating (corn; [19]) | Corn plant response rating (corn; [14]) | Corn plant response rating (0 to 10 scale) (corn; Preemergence, Rate 250 g/ha) | Plant response rating, Corn (corn; [20]) | Plant response rating, Corn (corn; [21]) | Rice plant response rating (rice; Pre-emergence, Rate 1000 g/ha, scale 0 to 10 (0 no effect, 10 complete control)) | Rice plant response rating (0 to 10 scale, 0 is no effect, 10 is complete control) (rice; [23]) | Rice plant response rating (rice; [24]) | Rice plant response rating (rice; [25])
3: Plant response rating, Crabgrass (crabgrass; [13]) | Crabgrass plant response rating (crabgrass; [19])

CC(C)N(C(=O)n1oc(=O)n(C(CF)CF)c1=O)c1ccc(F)cc1 [Compound 390]
8: Plant response rating, Crabgrass (crabgrass; [3]) | Sugarbeets plant response rating (sugar beet; [5]) | Sugarbeets plant response rating (sugar beet; [20])
10: Crabgrass plant response rating (crabgrass; [5]) | Crabgrass plant response rating (crabgrass; [20])
7: Plant response rating, Crabgrass (crabgrass; [11]) | Plant response rating, Crabgrass (crabgrass; [12]) | Sugarbeets plant response rating (sugar beet; [13]) | Plant response rating, Sugarbeets (sugar beet; [14]) | Corn plant response rating (corn; [20])
3: Plant response rating, Corn (corn; [14])
5: Plant response rating, Sugarbeets (sugar beet; [12]) | Plant response rating, Sugarbeets (sugar beet; [3])
4: Rice plant response rating (rice; [28])
0: Sugarbeets plant response rating (sugar beet; [17]) | Plant response rating, Corn (corn; [11]) | Plant response rating, Corn (corn; [12]) | Corn plant response rating (corn; [13]) | Plant response rating, Corn (corn; [3]) | Corn plant response rating (corn; [17])
1: Plant response rating, Rice (0 to 10 scale, 0 is no effect, 10 is complete control) (rice; [26]) | Rice plant response rating (0 to 10 scale, 0 is no effect, 10 is complete control) (rice; [23]) | Rice plant response rating (rice; [27])
2: Crabgrass plant response rating (crabgrass; [17])
9: Crabgrass plant response rating (crabgrass; [13]) | Plant response rating, Crabgrass (crabgrass; [14])

CC(C)N(C(=O)n1oc(=O)n(CC(=O)C2CCC2)c1=O)c1ccc(F)cc1 [Compound 640]
10: Plant response rating, Crabgrass (crabgrass; [20])
6: Plant response rating, Crabgrass (crabgrass; [13]) | Plant response rating, Sugarbeets (sugar beet; [30]) | Plant response rating, Sugarbeets (sugar beet; [20])
3: Crabgrass plant response rating (crabgrass; [22]) | Crabgrass plant response rating (crabgrass; [29]) | Crabgrass plant response rating (crabgrass; [14])
0: Plant response rating, Crabgrass (crabgrass; [1]) | Plant response rating, Sugarbeets (sugar beet; [1]) | Plant response rating, Sugarbeets (sugar beet; [18]) | Sugarbeets plant response rating (sugar beet; [22]) | Sugarbeets plant response rating (sugar beet; [29]) | Plant response rating, Corn (corn; [1]) | Plant response rating, Corn (corn; [18]) | Corn plant response rating (corn; [22]) | Plant response rating, Corn (corn; [13]) | Corn plant response rating (corn; [29]) | Corn plant response rating (corn; [14]) | Plant response rating, Corn (corn; [30]) | Plant response rating, Corn (corn; [20]) | Plant response rating, Rice (0 to 10 scale, 0 is no effect, 10 is complete control) (rice; [26]) | Rice plant response rating (0 to 10 scale, 0 is no effect, 10 is complete control) (rice; [23]) | Rice plant response rating (rice; [24]) | Rice plant response rating (rice; [25])
9: Plant response rating, Crabgrass (crabgrass; [30])
2: Plant response rating, Crabgrass (crabgrass; [18]) | Sugarbeets plant response rating (sugar beet; [14])

CCN(C(=O)n1oc(=O)n(C)c1=O)C1CCCCC1 [Compound 228]
3: Plant response rating (0 to 10; 0 is no effect, 10 is complete control), Sugarbeets (sugar beet; Rate 250 g/ha, Postemergence)
2: Plant response rating, Crabgrass (crabgrass; [20]) | Corn plant response rating (corn; [8])
1: Crabgrass plant response rating (crabgrass; [5])
4: Sugarbeets plant response rating (sugar beet; [8])
0: Crabgrass plant response rating (crabgrass; [29]) | Crabgrass plant response rating (crabgrass; [17]) | Crabgrass plant response rating (crabgrass; [31]) | Crabgrass plant response rating (crabgrass; [32]) | Plant response rating (0 to 10; 0 is no effect, 10 is complete control), Crabgrass (crabgrass; Rate 250 g/ha, Postemergence) | Crabgrass plant response rating (crabgrass; [8]) | Sugarbeets plant response rating (sugar beet; [29]) | Sugarbeets plant response rating (sugar beet; [5]) | Plant response rating, Sugarbeets (sugar beet; [20]) | Sugarbeets plant response rating (sugar beet; [17]) | Sugarbeets plant response rating (sugar beet; [31]) | Sugarbeets plant response rating (sugar beet; [32]) | Corn plant response rating (corn; [29]) | Corn plant response rating (corn; [5]) | Plant response rating, Corn (corn; [20]) | Corn plant response rating (corn; [17]) | Corn plant response rating (corn; [31]) | Corn plant response rating (corn; [32]) | Plant response rating (0 to 10; 0 is no effect, 10 is complete control), Corn (corn; Rate 250 g/ha, Postemergence) | Rice plant response rating (rice; [9]) | Rice plant response rating (rice; [10]) | Rice plant response rating (rice; [27]) | Rice plant response rating (rice; [28])
